Entries after “also recorded” stand apart in the source; their conditions may differ. Where two headings read alike, the source gives them in different places.
Columns and labels:
[1] = tested on: TDP43 granules in U2OS cells stably expressing tGFP tagged human TDP-43; assay: TDP43 granule formation inhibition in TDP43-tGFP-U2OS cells after sodium arsenite treatment; assay type: cell-based; details: for TDP43 granule formation inhibition in cells after arsenite treatment (overall result): 24 h pre-incubation, 1-10 μM, 250 μM sodium arsenite 120 min
Text: Amyotrophic lateral sclerosis (ALS) is one of the most common degenerative diseases of the motor neuron system. TDP-43 related pathologies seem to be a dominant type of pathologies across sporadic ALS types. A novel fluorescence cell-based assay for High Content Screening that allows the quantification of pathological TDP43 granules has been developed. In this work we have used this model to screen the effects of three compounds, using Riluzole as a positive control. The TDP-43 U2OS cell line contains U2OS cells stably expressing the tGFP tagged human TDP-43. This cell line has been designed to test compounds and to analyse their capability to modulate TDP43 granule formation after cytotoxic stress induction. The cell line was generated in Innoprot. It is a stable cell line that express the LacRI repressor protein and the TDP43-turboGFP protein. The cell line was generated using the pCMVLacRI-Hygro plasmid (Hygromycin resistance) and the pPuro-TDP43tGFP plasmid (that confers the puromycin resistance). The cell line was generated transfecting these plasmids with Lipofectamine LTX reagent, and the transfected cells were diluted until critical dilution. The negative control show a diffuse nuclear distribution of the fluorescence, but after sodium arsenite treatment the phenotype turns into a cytosolic vesicular pattern corresponding to stress granules and into an intensive nuclear granules pattern. The aim of this work was to assess different doses of 11 compounds.
The objective of these experiments was to screen the protective effect of 11 compounds and reference compound (arimoclomol) against cellular oxidative stress induced by sodium arsenite (i.e., arsenite). The compounds have been tested at 10 μM, […], 2 μM and 1 μM each, and appropriate controls (vehicle, arsenite and controls) have been included as well. The compound tested were the following: 101, 102, 103, 104, 105, 106, 107, 201, 202, 203 and 204.
Each compound was prepared in Optimem. In the final dilution, DMSO was added in order to obtain a final DMSO concentration of 0.1$, the same that the reference compound (arimoclomol). All compounds were tested at 0.1% DMSO (vehicle) final concentration.
Day 1 (Thursday). Recombinant TDP43-tGFP-U2OS cell line was thawed (2×10^6 cells per T75). Day 2 (Friday). After 24 hours, Cells were maintained in DMEM-F12 supplemented with 10% FBS at 37° C. in a humidified 5% CO2 atmosphere. Day 5 (Monday). Cells were plated in coated 96-well plates with a number of 10.000 cells (+/−2000 cells) per well. Cells were maintained in DMEM-F12 medium supplemented with 10% FBS for 24 h at 37° C. in a humidified 5% CO2 atmosphere. Day 6 (Tuesday). Cells were incubated with test compounds and IPTG 1 mM in triplicate assays during 24 hours. Day 7 (Wednesday). Culture medium was replaced, and cells were treated with 250 μM of sodium arsenite during 120 min and TDP-43 globs formation was quantified in both cell cytoplasm and cell nucleus. The TDP43 granules formation was quantified after the formaldehyde fixation (3.7 wt. %, 20 minutes) of the cells. The nuclei were stained using DAPI (2 μg/ml) and the fluorescence was measured using a Cell Insight High-Content Bioimager from Thermofisher. To detect the DAPI, the filters used were 380/10 and 460/10 nm for excitation and emission, respectively and to detect the TDP43 granules, the filters were 488/20 and 520/20 nm, respectively. The images were obtained with an objective of 20×, taking 9 pictures of each well. Cell quantification was performed delimitating the region of interest of the nuclei (stained with DAPI) and after quantification, the average of each triplicate was performed. Granule quantification was also performed using the Thermofisher Cellomics Scan Viewer 6.1.1. Spot detector application from Cell Software delimitated 2 regions of interest, the nuclei and cytosol. This software application quantified the number of granules per nuclei and the average granule number per cytosol of each well was calculated. […]

[2] = molecular target: T1, TDP-43307-319 WT peptide (Homo sapiens, UniProt Q13148); assay: IM-MS monitoring of oligomerization of TDP-43307-319 (recovery study on aggregated peptide); assay type: biochemical; details: for oligomer distribution initially after addition of inhibitor to aggregated WT peptide: initial time point; for remodeling of developed higher-order oligomers and prevention of re-formation (overall): recovery study on aggregated peptide; for rate of redistribution relative to the other inhibitors: recovery study, comparison among molecules; for oligomer distribution a week after single treatment: one week
T1 construct: TDP-43307-319 WT peptide 307 [MGGGMNF GAFSIN]319; made in house; host or cells: chemical synthesis (Fmoc solid phase peptide synthesis), not recombinant
Method: Peptide Synthesis and Purification. TDP-43307-319 WT peptide 307 [MGGGMNF GAFSIN]319 was synthesized using standard 9-fluorenylmethoxycarbonyl (Fmoc) chemistry using 2-(1H-benzotriazol-1-yl)-1,1,3,3-tetramethyluronium hexafluorophosphate/hydroxy-benzotriazole (HBTU/HOBT) manual solid phase peptide synthesis. The peptide was amidated with an Fmoc-Rink Amide resin (Anaspec). The peptide was cleaved from the resin using 94% TFA, 5% triisopropylsilane, and 1% phenol for 2 h at 295 K. The crude peptide was purified by reverse phase high performance liquid chromatography (RP-HPLC) on a semipreparative C18 column (Phenomenex) using gradients of water [0.1% (v/v) TFA] and acetonitrile [0.1% (v/v) TFA]. The peptide was dissolved in 6 M guanidine hydrochloride (GdnHCl) prior to injection due to its insolubility in water and acetonitrile. The peptide purity was >93% as determined by analytical RP-HPLC. The molecular mass of the peptide was verified by ESI mass spectrometry.
IM-MS was utilized to monitor the oligomerization of TDP-43307-319 in the presence of molecules AC0107, AC0105, AC0102 and AC0201. The ability of IMMS to separate species of a specific [m]z+ (m=mass, z=charge) that contains different [n]z+ (n=oligomer number) by measuring the arrival time distributions (ATDs) yields oligomeric distributions. Samples were prepared as mentioned previously and incubated at room temperature under quiescent conditions.
The TDP-43307-319 WT peptide was dissolved in 10 mM ammonium acetate (pH 7.4) with 2% HFIP to a final peptide concentration of 100 μM. The sample was incubated at room temperature under quiescent conditions for 4 h to develop higher-order oligomers. Two dominant mass/charge (m/z) peaks were always present in the mass spectra corresponding to [n]Z+=[1]1+ and [1]2+. […] After incubation at room temperature for 4 h, the distribution shifted toward the higher-order oligomers. […] Once the presence of higher-order oligomers was confirmed, an inhibitor (either [AC0107], [AC0105], [AC0102], [AC0201] or [AC0202]) was added in a 1:1 peptide (100 μM): inhibitor (100 μM) molar ratio. Subsequent time points were taken to monitor the remodeling properties of the inhibitors.

[3] = molecular target: T1, TDP-43307-319 WT peptide; assay: as above; assay type: biochemical; details: 100 μM peptide
[4] = Homo sapiens, U2OS, normalized to sodium arsenite and vehicle, read-out: maximum stress granule inhibition in cytosol
[5] = 1:1 peptide (100 μM): inhibitor (100 μM), added after 4 h aggregation

Row | Compound | TDP43 granule formation inhibition in cells after arsenite treatment (overall result) [1] | inhibition at 10 µM [1, 4] [%] | oligomer distribution initially after addition of inhibitor to aggregated WT peptide ([2]; 1:1, 100 μM each) | remodeling of developed higher-order oligomers and prevention of re-formation (overall) [2] | other results
1 | CC(=O)Nc1ccc(CNCCc2cccc(Cl)c2)cc1 [AC0101, N-[4-({[2-(3-chlorophenyl)ethyl]amino}methyl)phenyl]acetamide] | positive | 44 |  |  | inhibition at 5 µM ([1]; Homo sapiens, U2OS, at 5 μM, normalized to sodium arsenite and vehicle, read-out: maximum stress granule inhibition in nucleus): 62.5%
2 | CN(C)Cc1ccc(CNCc2ccc3c(c2)OCCO3)cc1 [AC0102, (2,3-dihydro-1,4-benzodioxin-6-ylmethyl)({4 [(dimethylamino)-methyl]phenyl}methyl)amine] | positive | 36.9 | shift toward higher-order oligomers | able to remodel the developed higher-order oligomers and prevent the re-formation of these toxically related species | inhibition at 10 µM ([1]; Homo sapiens, U2OS, normalized to sodium arsenite and vehicle, read-out: maximum stress granule inhibition in nucleus): 27.7%; oligomer distribution after 1 h ([2]; 1:1, 100 μM each, 1 h after addition): remnants of higher-order oligomers are present; oligomer distribution at later time points ([2]; 1:1, 100 μM each, later time points): composed primarily of monomer and dimer; rate of redistribution relative to the other inhibitors [2]: slower rate
3 | CN(C)C(=O)C(c1ccccc1)N1CCN(c2ccc(O)cc2)CC1 (stereo not shown) [AC0103, 2-[4-(4-hydroxyphenyl)piperazin-1-yl]-N,N-dimethyl-2 phenylacetamide] | positive | 47.2 |  |  | 
4 | N#Cc1cccc(CNCc2ccc(CN3CCOCC3)cc2)c1 [AC0104, 3-[({[4-(morpholin-4 ylmethyl)phenyl]methyl}amino)methyl]benzonitrile] | mildly active |  |  |  | 
5 | N#Cc1ccc(CNCc2ccc(CN3CCCC3)cc2)cc1 [AC0105, 4-[({[4-(pyrrolidin-1 ylmethyl)phenyl]methyl}amino)methyl]benzonitrile] | mildly active |  | immediate dissociation of higher-order oligomers into monomer and dimer | able to remodel the developed higher-order oligomers and prevent the re-formation of these toxically related species | oligomer distribution a week after single treatment ([2]; 1:1, 100 μM each): maintained for a week
6 | N#Cc1ccc(CNCc2cccc(CN3CCCC3)c2)cc1 [AC0107, 4-[({[3-(pyrrolidin-1-ylmethyl)phenyl]methyl}amino)methyl]benzonitrile] |  |  | initial increase in the number of higher-order oligomers | able to remodel the developed higher-order oligomers and prevent the re-formation of these toxically related species | time by which redistribution to mostly monomer and dimer is seen ([2]; 1:1, 100 μM each): ≥ 3 h; complexation between WT peptide and molecule in mass spectra [2, 5]: no complexation; level of aggregation (signal-to-noise ratio, baseline, [1]1+ peak) after addition of inhibitor [2, 5]: level of aggregation was reduced
7 | CC(C)C(NCc1ccccc1)c1cccc(C=O)c1 (stereo not shown) [AC0201, 3-[1-(benzylamino)-2-methylpropyl]benzaldehyde] |  |  | immediately pushed the bulk of the distribution back to monomer, dimer, and trimer | successfully redistributed the oligomers to monomer and was able to prevent the re-formation of higher-order oligomers | redistribution of oligomers at 10:1 peptide:inhibitor molar ratio ([3]; 10 μM inhibitor): takes a longer time to dissociate oligomers to mostly monomer; also recorded: very effective inhibitor; also recorded: effective; redistribution of oligomers at 4:1 peptide:inhibitor molar ratio ([3]; 25 μM inhibitor): effective at redistributing and maintaining the population of lower-order oligomers; redistribution of oligomers at 2:1 peptide:inhibitor molar ratio ([3]; 50 μM inhibitor): effective at redistributing and maintaining the population of lower-order oligomers; oligomer distribution at 3-24 h ([2]; 1:1, 100 μM each, 3-24 h after addition): dominated by monomer and dimer; oligomer distribution a week after single treatment ([2]; 1:1, 100 μM each): dominate monomer peak was observed; rate of redistribution relative to the other inhibitors [2]: fastest and most efficient redistribution

— patent US12318357B2, “Small molecule drugs and related methods for treatment of diseases related to TDP-43, alpha-synuclein, huntingtin's protein and tau protein oligomer formation” (ACELOT, INC., priority 2019, dated 2025)
